Usually CC50 stands for the concentration at which the toxic effect on the cells reaches its halfway point. The IC50 is the concentration that inhibits the measured activity by half.

Structures are written as SMILES. Active and inactive are the calls of the source. The calls are words filed in the database; no cut-off is given here.

Data set [1] is described as follows: Cytotoxicity against human HepG2.2.15 cells assessed as cell death after 9 days by MTS assay. Format: cell-based, HepG2 2.2.15.
Data set [2] has as its system Hepatitis B virus. Kind of data set: Antiviral activity against hepatitis B viral in human HepG2.2.15 cells assessed as surface antigen HBsAg secretion after 9 days by ELISA. Format: functional, organism-based. The following applies: HepG2 2.2.15, 216 h. (In an ELISA, binding on a coated surface is turned into a signal by an enzyme label.)
The test system of data set [3] is Hepatitis B virus. Kind of data set: Antiviral activity against hepatitis B viral in human HepG2.2.15 cells assessed as HBeAg secretion after 9 days by ELISA. Format: functional, organism-based. The following applies: HepG2 2.2.15, 216 h.
Data set [4] is described as follows: Selectivity index, ratio of CC50 for human HepG2.2.15 cells to IC50 for decrease in hepatitis B viral surface antigen HBsAg secretion in human HepG2.2.15 cells. Format: functional.
The nature of data set [5]: Selectivity index, ratio of CC50 for human HepG2.2.15 cells to IC50 for decrease in hepatitis B viral HBeAg secretion in human HepG2.2.15 cells. Format: functional.
The test system of data set [6] is Hepatitis B virus. Put plainly: Antiviral activity against hepatitis B viral in human HepG2.2.15 cells assessed as viral DNA replication after 9 days by real-time PCR analysis (reference value: 6.12 +/- 1.46 AU). It is filed as functional, HepG2 2.2.15. For orientation: Real-time PCR tracks product formation cycle by cycle.
Data set [7] has as its system Hepatitis B virus. Kind of data set: Antiviral activity against hepatitis B viral in human HepG2.2.15 cells assessed as viral surface antigen HBsAg level after 9 days by ELISA (reference value: 721 +/- 32 pg/ml). It is filed as functional, HepG2 2.2.15.
The subject of data set [8] is Hepatitis B virus. Put plainly: Antiviral activity against hepatitis B viral in human HepG2.2.15 cells assessed as viral HBcAg level after 9 days by ELISA (reference value: 14.16 +/- 1.92 ng/ml). Format: functional, HepG2 2.2.15.
Data set [9] can be described thus: Antiproliferative activity against human HepG2.2.15 cells assessed as cell growth at 20 uM after 0 to 24 hrs by MTT assay. It is filed as cell-based. The note with it: hepg2 2.2.15, 20 µM. Background: Tetrazolium assays rely on reduction of a dye to a coloured formazan, in cell work by metabolically active cells.
The subject of data set [10] is HepG2 2.2.15. Kind of data set: Induction of autophagy in HBV-infected human HepG2.2.15 cells assessed as decrease in NTCP level after 12 to 24 hrs by Western blot analysis. It is filed as functional.
Data set [11] relates to HepG2 2.2.15. Put plainly: Induction of autophagy in HBV-infected human HepG2.2.15 cells assessed as decrease in APOA1 level after 12 to 24 hrs by Western blot analysis. Format: functional.
In data set [12] the test system is HepG2 2.2.15. Put plainly: Induction of autophagy in HBV-infected human HepG2.2.15 cells assessed as decrease in HBx level after 12 to 24 hrs by Western blot analysis. Format: functional.
The target in data set [13] is Sodium/bile acid cotransporter NTCP (Homo sapiens) (UniProt Q14973). Kind of data set: Induction of human NTCP receptor inhibition-mediated autophagy in HBV-infected human HepG2.2.15 cells assessed as MDC positive cells at 20 uM after 12 hrs by […] (reference value: 0.60%). On the set-up: scale not given: the % may be the effect or the level left.
Sodium/bile acid cotransporter NTCP (Homo sapiens), sequence (Q14973 whole entry, looked up): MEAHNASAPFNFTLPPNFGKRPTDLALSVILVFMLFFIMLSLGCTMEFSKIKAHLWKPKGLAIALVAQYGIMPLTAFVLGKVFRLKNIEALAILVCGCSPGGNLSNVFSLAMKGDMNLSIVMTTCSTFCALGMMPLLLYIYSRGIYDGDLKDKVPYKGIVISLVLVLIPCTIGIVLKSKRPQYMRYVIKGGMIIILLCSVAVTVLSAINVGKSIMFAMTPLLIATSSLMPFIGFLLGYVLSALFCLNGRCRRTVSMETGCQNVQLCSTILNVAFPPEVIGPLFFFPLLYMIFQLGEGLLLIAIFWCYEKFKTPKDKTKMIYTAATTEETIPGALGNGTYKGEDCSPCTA

Data set [14] has the same target. Kind of data set: Induction of human NTCP receptor inhibition-mediated autophagy in HBV-infected human HepG2.2.15 cells assessed as MDC positive cells at 20 uM after 24 hrs by […] (reference value: 0.60%). On the set-up: scale not given: the % may be the effect or the level left.

In the case of `COC(=O)Nc1nc2cc(C(=O)c3ccco3)ccc2[nH]1`, in [1], the CC50 at 216 h was > 1000 µM. In addition, the IC50 in [2] and in data set [3] was > 1000 µM each time.

On to `COC(=O)Nc1nc2nc(C(=O)c3ccc(O)c(OC)c3)ccc2[nH]1`, for which the CC50 at 216 h in data set [1] was determined as 197 µM. Further, the concentration for half-maximal inhibition (IC50) came to 17.9 µM in data set [2] and 25.1 µM in [3]. Moreover, the “Selectivity Index” value is on record as 11 in data set [4] and 7.86 in [5]. The Activity is 2.46 a.u in data set [6]; 258 pg/mL in [7]; 8140 pg/mL in [8]; “Toxic” in [9]; 9.3% in data set [13]; 31.1% in [14]. Further, the inhibition result in data set [10], in [11] and in data set [12] was “Active” each time.

On to `COC(=O)Nc1nc2ccc(C(=O)c3ccccc3)cc2[nH]1` [MEBENDAZOLE], for which, in data set [1], the 50% cytotoxic concentration (CC50) at 216 h was > 1000 µM. For the same compound, the IC50 in data set [2] and in [3] was > 1000 µM each time.

As to `COC(=O)Nc1nc2cc(C(=O)c3ccc(F)cc3)ccc2[nH]1` [FLUBENDAZOLE], the results for the “Selectivity Index” value in data set [4] and in [5] were 2.5 and 4.75, respectively. In addition, the Activity came to 3.76 a.u in data set [6], 361 pg/mL in data set [7] and 10100 pg/mL in [8].

As for `COC(=O)Nc1nc2cc(C(=O)c3ccccn3)ccc2[nH]1`, the CC50 at 216 h in data set [1] is > 1000 µM. Also, the IC50 in data set [2] and in data set [3] was > 1000 µM throughout.

Turning to `COC(=O)Nc1nc2nc(C(=O)c3cccc(OC)c3)ccc2[nH]1`, in data set [1], the CC50 at 216 h is 78.1 µM. Moreover, the IC50 in data set [2] was 41.2 µM; in data set [3] it was 167 µM. Also, the “Selectivity Index” value in [4] is on record as 1.89; in [5], 0.47.

As for `COC(=O)Nc1nc2cc(C(=O)c3cccc(F)c3)ccc2[nH]1`, in data set [1], the CC50 at 216 h came to 21.2 µM. In addition, the values for the IC50 in data set [2] and in data set [3] were 245 µM and 397 µM, respectively. Also, the “Selectivity Index” value came to 0.09 in [4] and 0.05 in data set [5].

Turning to `COC(=O)Nc1nc2cc(C(=O)c3ccc(OC)c(OC)c3)ccc2[nH]1`, the CC50 at 216 h in data set [1] worked out at 48.5 µM. The IC50 in data set [2] came out at 190 µM; in [3], 312 µM. The “Selectivity Index” value in data set [4] was determined as 0.25; in data set [5], 0.15.

`Nc1ncnc2c1ncn2CCOCP(=O)(O)O` [ADEFOVIR]: in data set [1], the CC50 at 216 h stood at 490 µM. In addition, the IC50 in data set [2] stood at 257 µM; in [3], 215 µM. Also, the figures for the “Selectivity Index” value in data set [4] and in data set [5] were 1.9 and 2.27, respectively. The Activity was determined as 4.12 a.u in data set [6], 571 pg/mL in [7] and 12100 pg/mL in [8].

`COC(=O)Nc1nc2nc(C(=O)c3ccc(OC)c(OC)c3)ccc2[nH]1`: the CC50 at 216 h in data set [1] was 102 µM. The IC50 worked out at 37.3 µM in data set [2] and 78.4 µM in data set [3]. The figures for the “Selectivity Index” value in data set [4] and in data set [5] were 2.74 and 1.3, respectively.

As to `COC(=O)Nc1nc2cc(C(=O)c3ccc(O)c(OC)c3)ccc2[nH]1`, in [1], the CC50 at 216 h was 105 µM. For the same compound, the IC50 was found to be 29.7 µM in data set [2] and 216 µM in data set [3]. Besides, the entries for the “Selectivity Index” value in data set [4] and in data set [5] were 3.55 and 0.49, respectively.

For `COC(=O)Nc1nc2cc(C(=O)c3cccc(OC)c3)ccc2[nH]1`, the CC50 at 216 h in [1] turned out to be 117 µM. For the same compound, the IC50 was found to be 97.5 µM in [2] and 479 µM in data set [3]. Also, the entries for the “Selectivity Index” value in [4] and in data set [5] were 1.19 and 0.24, respectively.

The record behind these values is ChEMBL document CHEMBL3399962, “Design and synthesis of a novel candidate compound NTI-007 targeting sodium taurocholate cotransporting polypeptide [NTCP]-APOA1-HBx-Beclin1-mediated autophagic pathway in HBV therapy” (Bioorg Med Chem, 2015).
